Data: publication PMC11770985 (Journal of proteome research, 2024)
Ends that are not written are not given here.

Legend:
[1] = test system: HEK293T cells
[2] = test system: Kasumi-1 cells
[3] = test system: HUVEC cells
[4] = test system: Huh-7 cells

| Substance | mean cytoplasmic abundance [1] | mean cytoplasmic abundance [2] | mean cytoplasmic abundance [3] | change of nuclear accumulation after 24 hours of cell exposure [4] | mean nuclear abundance [4] |
| --- | --- | --- | --- | --- | --- |
| KLALKLALKALKAALKLAGAYGRKKRRQRRRAFSVDAETLWR-NH2 [KLAL-TAT-[barcode82]] | 31 millions of molecules/cell | 15 millions of molecules/cell | 0 millions of molecules/cell | – | – |
| RLALRLALRALRAALRLAGCYGRKKRRQRRR [RLAL-TAT-[barcode108]] | – | – | – | time-dependent increase in nuclear accumulation | 196 millions of molecules/cell |
